Measurements as given in patent publication US7273458B2, “Method of applying acoustic energy effective to alter transport or cell viability” (Georgia Tech Research Corporation, priority 1998, dated 2007).

System: Prostate tumor cells (DU-145)
Test: Ultrasound-mediated uptake of fluorescent markers into prostate tumor cells (flow cytometry)
Type: cell-based
Settings: for time decay constant τ of average uptake versus time of addition after exposure: exponential fit, calcein added ≧15 s after exposure
Description: Prostate tumor cells (DU-145) were suspended in RPMI-1640 medium with 10% fetal bovine serum at 5×10^5 cells/ml. For each experimental condition, a 3 ml polypropylene tube was filled with the cell suspension at room temperature (22±2° C.) and the top of the tube was closed without entrapping any air bubbles. The cells were exposed to ultrasound at 24 kHz in a chamber that consisted of a cylindrical piezoelectric transducer sandwiched between two PVC pipes and filled with deionized and degassed water at room temperature. Pressure, pulse length, duty cycle, and the total exposure time of ultrasound exposure were controlled. Acoustic spectra during exposure were collected using a hydrophone placed in the exposure chamber. Calcein, a green-fluorescent membrane-impermeant marker, dissolved in saline, was added to the suspensions either before or at various times after exposure at a final concentration of 10 μM. Other fluorescent markers, with different sizes, were also used to determine membrane permeability. The cells were kept at room temperature for 15 minutes after exposure, and then placed on ice until they were centrifuged and resuspended in phosphate-buffered saline with 0.1 mg/ml of propidium iodide (a red-fluorescence viability stain). Cell-by-cell fluorescence was measured using flow cytometry, and 6 μm green-fluorescence microspheres were added to each sample at a constant concentration to provide an internal volumetric standard for determining concentrations of viable cells.

Row | Compound | uptake when added after ultrasound exposure (lifetime of membrane disruptions) (calcein added at different times after exposure) | average uptake when added 15 sec. after exposure compared to added before exposure (examined pressures 5.3, 7.1 and 8.0 atm) | time decay constant τ of average uptake versus time of addition after exposure (incident pressure 5.3 atm) [s] | time decay constant τ of average uptake versus time of addition after exposure (incident pressure 7.1 atm) [s] | time decay constant τ of average uptake versus time of addition after exposure (incident pressure 8.0 atm) [s] | average cellular calcein uptake, plateau (ultrasound 24 kHz, increasing peak incident pressure, 20 pulses of 0.1 sec, 10% duty cycle, calcein 10 μM added before exposure) | average uptake of molecules per exposed cell, less than that of calcein (same external concentration (10 μM), exposure conditions of FIG. 7, P=8.0 atm)
1 | O=C(O)CN(CC(=O)O)Cc1cc2c(cc1O)Oc1cc(O)c(CN(CC(=O)O)CC(=O)O)cc1C21OC(=O)c2ccccc21 [calcein] | significant uptake occurred for up to two minutes after exposure | about 50 % less | 78 | 66 | 56 | 20-25 % of external calcein concentration | 
2 | bovine serum albumen [BSA] |  |  |  |  |  |  | about 60 % less
